1 molecule from patent US20250257357A1, “TREATMENT OF H3.3-MUTANT BRAIN CANCER WITH PNKP INHIBITORS” (UNIVERSITE PARIS CITE, priority 2022, published 2025) can be followed below.

The test system of the assay is Hela cells. The assay can be described thus: RAD51 and 53BP1 repair foci by immunofluorescence in Hela cells with EZH2 inhibition. The class given is cell-based, human. The following applies: 72 h, 1 μM, damaged with camptothecin (3 h, 0.1 μM), FIG. 2B. Here is the method:
Camptothecin (CPT, Sigma-Aldrich) was used at 0.1 μM for 3 h, or at 1 μM for 1 or 3 h for iPOND in human cells, and at 5 or 10 μM in yeast cells; hydroxyurea (HU, Sigma-Aldrich) at 2 mM for 3 h; mitomycin C (MMC, Sigma-Aldrich) at 200 ng/ml and 25 ng/ml for 24 h for repair foci analyses and metaphase spreads, respectively; bleomycin (Bleo, Sigma-Aldrich) at 20 µg/mL for 3 h. An overnight treatment with 2 mM Thymidine followed by 3 h release in fresh medium was used to enrich cells in S phase for iPOND experiments (70-75% of cells were in S phase as evaluated by FACS). The EZH2 inhibitor GSK126 (EZH2i, Selleckchem) was used at 1 μM for 72 h.
Cells grown on glass coverslips (VWR) were either fixed directly with 2% paraformaldehyde (PFA) and permeabilized with 0.2% Triton X-100 in PBS or pre-extracted before fixation with 0.5% Triton X-100 in CSK buffer (Cytoskeletal buffer: 10 mM PIPES pH 7.0, 100 mM NaCl, 300 mM sucrose, 3 mM MgCl2) to remove soluble proteins (not bound to chromatin) and then fixed with 2% PFA. […] Images were mounted with Adobe Photoshop applying the same treatment of fluorescence levels to all images from the same experiment. […] The position of the LacO array was determined based on mCherry-LacR signal. DNA repair and PLA foci were identified and counted by using the find maxima function (Fiji software), on maximum intensity z-projections in the case of PLA foci. […]

Turning to `CC[C@H](C)n1cc(C)c2c(C(=O)NCc3c(C)cc(C)[nH]c3=O)cc(-c3ccc(N4CCNCC4)nc3)cc21` [EZH2i, GSK126], the “RAD51 and 53BP1 foci (DNA repair defect)” value was “did not recapitulate the DNA repair defect”.
